Assay results taken from patent US6737383B1, “Herbicidal oxadiazolidines” (priority 1999, dated 2004).

Assays:
[1] = tested on: purple nutsedge; assay: Test B pre/postemergence purple nutsedge; type: in vivo, Cyperus rotundus
In short: (§1)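 Response is a visual 0-to-10 score relative to untreated plants, where 0 means no effect and 10 means complete control, taken twelve to sixteen days after application. Treatments went onto soil at planting and onto foliage of 1- to 4-leaf plants, using a surfactant-containing non-phytotoxic solvent.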

[2] = tested on: morningglory; assay: Test B pre/postemergence morningglory; type: in vivo, Ipomoea hederacea
In short: as §1

[3] = tested on: soybean; assay: Test B pre/postemergence soybean; type: in vivo, Glycine max
In short: as §1

[4] = tested on: rape; assay: Test B pre/postemergence rape; type: in vivo, Brassica napus
In short: as §1

[5] = tested on: sugar beet; assay: Test B pre/postemergence sugar beet; type: in vivo, Beta vulgaris
In short: as §1

[6] = tested on: pigweed; assay: Test B pre/postemergence pigweed; type: in vivo, Amaranthus retroflexus
In short: as §1

[7] = tested on: velvetleaf; assay: Test B pre/postemergence velvetleaf; type: in vivo, Abutilon theophrasti
In short: as §1

[8] = tested on: corn; assay: Test B pre/postemergence corn; type: in vivo, Zea mays
In short: as §1

[9] = tested on: rice; assay: Test B flood test rice; type: in vivo, Oryza sativa
In short: (§2)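 Flood test on plants grown to the 2-leaf stage; treated plants kept in greenhouse twelve to sixteen days, then visually rated against controls on a 0 (no effect) to 10 (complete control) scale.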

[10] = tested on: bamyardgrass; assay: Test B flood test barnyardgrass; type: in vivo, Echinochloa crus-galli
In short: as §2

[11] = tested on: smallflower flatsedge; assay: Test B flood test smallflower flatsedge; type: in vivo, Cyperus difformis
In short: as §2

[12] = tested on: duck salad; assay: Test B flood test duck salad; type: in vivo, Heteranthera limosa
In short: as §2

[13] = tested on: bedstraw; assay: Test B pre/postemergence bedstraw; type: in vivo, Galium aparine; conditions: Rate 62 g/ha, Postemergence; scale 0 to 10 (0 no effect, 10 complete control)
In short: as §1

[14] = tested on: giant foxtail; assay: Test B pre/postemergence giant foxtail; type: in vivo, Setaria faberii
In short: as §1

[15] = tested on: blackgrass; assay: Test B pre/postemergence blackgrass; type: in vivo, Alopecurus myosuroides
In short: as §1

[16] = tested on: surinam grass; assay: Test B pre/postemergence surinam grass; type: in vivo, Brachiaria decumbens
In short: as §1

[17] = Postemergence, Rate 250 g/ha, scale 0 to 10
[18] = Postemergence, Rate 500 g/ha, scale of 0 to 10 where 0 is no effect and 10 is complete control
[19] = Preemergence, Rate 62 g/ha, scale of 0 to 10 where 0 is no effect and 10 is complete control
[20] = Preemergence, Rate 125 g/ha, scale of 0 to 10 where 0 is no effect and 10 is complete control
[21] = Preemergence, Rate 250 g/ha, scale 0 to 10, 0 is no effect, 10 is complete control
[22] = Preemergence, Rate 500 g/ha, scale 0 to 10, 0 is no effect, 10 is complete control
[23] = Rate 62 g/ha, Postemergence, scale 0 to 10 (0 no effect, 10 complete control)
[24] = Rate 125 g/ha, Postemergence, scale 0 to 10, 0 is no effect, 10 is complete control
[25] = Rate 62 g/ha, flood test species, Pre-emergence, visual evaluation after twelve to sixteen days
[26] = Rate 125 g/ha, under heading Pre-emergence, flood test species, visual evaluation after twelve to sixteen days
[27] = Rate 250 g/ha, Pre-emergence (flood test species), scale 0 to 10, 0 is no effect, 10 is complete control
[28] = Rate 500 g/ha, Pre-emergence, flood test species, scale 0 to 10 (0 no effect, 10 complete control)

COCC(OC)n1c(=O)on(C(=O)N(c2ccc(F)cc2)C(C)C)c1=O (stereo not drawn) [Compound 446]
Nutsedge plant response rating [1, 17]: 0 | Nutsedge plant response rating [1, 18]: 0 | Plant response rating, Nutsedge [1, 19]: 0 | Plant response rating, Nutsedge [1, 20]: 0 | Nutsedge plant response rating [1, 21]: 0 | Nutsedge plant response rating [1, 22]: 0 | Nutsedge plant response rating [1, 23]: 0 | Nutsedge plant response rating [1, 24]: 0 | Morningglory plant response rating [2, 17]: 3 | Morningglory plant response rating [2, 18]: 3 | Plant response rating, Morningglory [2, 19]: 0 | Plant response rating, Morningglory [2, 20]: 0 | Morningglory plant response rating [2, 21]: 0 | Morningglory plant response rating [2, 22]: 9 | Morningglory plant response rating [2, 23]: 2 | Morningglory plant response rating [2, 24]: 2 | Soybean plant response rating [3, 17]: 4 | Soybean plant response rating [3, 18]: 4 | Plant response rating, Soybean [3, 19]: 0 | Plant response rating, Soybean [3, 20]: 0 | Soybean plant response rating [3, 21]: 2 | Soybean plant response rating [3, 22]: 2 | Soybean plant response rating [3, 23]: 1 | Soybean plant response rating [3, 24]: 2 | Rape plant response rating [4, 17]: 0 | Rape plant response rating [4, 18]: 0 | Plant response rating, Rape [4, 19]: 0 | Plant response rating, Rape [4, 20]: 0 | Rape plant response rating [4, 21]: 8 | Rape plant response rating [4, 22]: 10 | Rape plant response rating [4, 23]: 0 | Rape plant response rating [4, 24]: 0 | Sugarbeets plant response rating [5, 17]: 0 | Sugarbeets plant response rating [5, 18]: 0 | Plant response rating, Sugarbeets [5, 19]: 0 | Plant response rating, Sugarbeets [5, 20]: 4 | Sugarbeets plant response rating [5, 21]: 6 | Sugarbeets plant response rating [5, 22]: 8 | Sugarbeets plant response rating [5, 23]: 0 | Sugarbeets plant response rating [5, 24]: 0 | Redroot pigweed plant response rating [6, 17]: 0 | Redroot pigweed plant response rating [6, 18]: 0 | Plant response rating, Redroot pigweed [6, 19]: 6 | Plant response rating, Redroot pigweed [6, 20]: 10 | Redroot pigweed plant response rating [6, 21]: 10 | Redroot pigweed plant response rating [6, 22]: 10 | Redroot pigweed plant response rating [6, 23]: 0 | Redroot pigweed plant response rating [6, 24]: 0 | Velvetleaf plant response rating [7, 17]: 2 | Velvetleaf plant response rating [7, 18]: 3 | Plant response rating, Velvetleaf [7, 19]: 0 | Plant response rating, Velvetleaf [7, 20]: 3 | Velvetleaf plant response rating [7, 21]: 7 | Velvetleaf plant response rating [7, 22]: 10 | Velvetleaf plant response rating [7, 23]: 0 | Velvetleaf plant response rating [7, 24]: 0 | Corn plant response rating [8, 17]: 0 | Corn plant response rating [8, 18]: 5 | Plant response rating, Corn [8, 19]: 0 | Plant response rating, Corn [8, 20]: 0 | Corn plant response rating [8, 21]: 2 | Corn plant response rating [8, 22]: 6 | Corn plant response rating [8, 23]: 0 | Corn plant response rating [8, 24]: 0 | Plant response rating, Rice (0 to 10 scale, 0 is no effect, 10 is complete control) [9, 25]: 0 | Rice plant response rating (0 to 10 scale, 0 is no effect, 10 is complete control) [9, 26]: 0 | Rice plant response rating [9, 27]: 0 | Rice plant response rating [9, 28]: 0 | Plant response rating, Barnyardgrass (0 to 10 scale, 0 is no effect, 10 is complete control) [10, 25]: 0 | Barnyardgrass plant response rating (0 to 10 scale, 0 is no effect, 10 is complete control) [10, 26]: 0 | Barnyardgrass plant response rating [10, 27]: 0 | Barnyardgrass plant response rating [10, 28]: 0 | Plant response rating, S. Flatsedge (0 to 10 scale, 0 is no effect, 10 is complete control) [11, 25]: 0 | S. Flatsedge plant response rating (0 to 10 scale, 0 is no effect, 10 is complete control) [11, 26]: 0 | S. Flatsedge plant response rating [11, 27]: 0 | S. Flatsedge plant response rating [11, 28]: 0 | Plant response rating, Ducksalad (0 to 10 scale, 0 is no effect, 10 is complete control) [12, 25]: 0 | Ducksalad plant response rating (0 to 10 scale, 0 is no effect, 10 is complete control) [12, 26]: 0 | Ducksalad plant response rating [12, 27]: 0 | Ducksalad plant response rating [12, 28]: 0 | Bedstraw plant response rating [13]: 0 | Giant foxtail plant response rating [14, 17]: 9 | Giant foxtail plant response rating [14, 18]: 9 | Plant response rating, Giant foxtail [14, 19]: 9 | Plant response rating, Giant foxtail [14, 20]: 10 | Giant foxtail plant response rating [14, 21]: 10 | Giant foxtail plant response rating [14, 22]: 10 | Giant foxtail plant response rating [14, 23]: 6 | Giant foxtail plant response rating [14, 24]: 9 | Blackgrass plant response rating [15, 17]: 8 | Blackgrass plant response rating [15, 18]: 9 | Plant response rating, Blackgrass [15, 19]: 5 | Plant response rating, Blackgrass [15, 20]: 7 | Blackgrass plant response rating [15, 21]: 8 | Blackgrass plant response rating [15, 22]: 10 | Blackgrass plant response rating [15, 23]: 4 | Blackgrass plant response rating [15, 24]: 8 | B. signalgrass plant response rating ([16]; Postemergence, Rate 250 g/ha, scale 0 to 10, 0 no effect, 10 complete control): 6 | B. signalgrass plant response rating [16, 18]: 8 | Plant response rating, B. signalgrass [16, 19]: 0 | Plant response rating, B. signalgrass [16, 20]: 6 | B. signalgrass plant response rating [16, 21]: 7 | B. signalgrass plant response rating [16, 22]: 8 | B. signalgrass plant response rating [16, 23]: 2 | B. signalgrass plant response rating [16, 24]: 3
